≈ marks a conversion by molar mass, not a printed value.
Assays:
Candida parapsilosis = test: Antifungal activity against Candida parapsilosis ATCC 22019 incubated for 24 hrs by CLSI based broth microdilution method; format: functional; settings: Lodderomyces parapsilosis, ATCC 22019, 24 h
Nakaseomyces glabratus = test: Antifungal activity against Candida glabrata ATCC 2001 incubated for 24 hrs by CLSI based broth microdilution method; format: functional; settings: ATCC 2001, 24 h
Candida albicans = test: Antifungal activity against Candida albicans SC5314 incubated for 24 hrs by CLSI based broth microdilution method; format: functional; settings: SC5314, 24 h
[1] = system: Mycobacterium tuberculosis; test: Antitubercular activity against Mycobacterium tuberculosis HN878; format: functional
[2] = system: Mycobacterium tuberculosis; test: Antitubercular activity against Mycobacterium tuberculosis HN878 in presence of non-ionic surfactant vesicles relative to compound alone; format: functional
[3] = system: Trypanosoma brucei gambiense; test: Trypanocidal activity against Trypanosoma brucei gambiense; format: functional, organism-based

Row | SMILES | MIC50 (Candida parapsilosis) [µg/mL] | MIC50 (Nakaseomyces glabratus) [µg/mL] | MIC50 (Candida albicans) [µg/mL] | MIC50 [1] [µM] | fold change (FC) [2] | IC50 [3] [nM]
1 | Cl.Cl.N=C(N)N/N=C/c1ccc(-c2ccc(/C=N/NC(=N)N)s2)cc1 | 2 to 15.6 | 2 to 15.6 | 2 to 15.6 | – | – | –
2 | C/C(=N\NC(=N)N)c1ccc(-c2ccc(/C(C)=N/NC(=N)N)s2)cc1.Cl.Cl | 2 to 15.6 | 2 to 15.6 | 2 to 15.6 | – | – | –
3 | Cn1cc(NC(=O)c2cc(NC(=O)c3ccc(/C=C/c4ccc(C(F)(F)F)cc4)cc3)cn2C)cc1C(=O)NCCC(=N)N | – | – | – | 4.19 (≈ 2.54 µg/mL) | 2.1 | –
4 | Cl.Cl.N=C(N)N/N=C/c1ccc(-c2ccc(/C=N/NC(=N)N)o2)cc1 | 2 to 15.6 | 2 to 15.6 | 2 to 15.6 | – | – | –
5 | Cl.Cl.N=C(N)N/N=C/c1ccc(-c2cnc(-c3ccc(/C=N/NC(=N)N)cc3)s2)cc1 | 2 to 15.6 | 2 to 15.6 | 2 to 15.6 | – | – | –
6 | N=C(N)c1ccc(OCCCCCOc2ccc(C(=N)N)cc2)cc1 [PENTAMIDINE] | – | – | – | – | – | 1 to 10
7 | Cn1cc(NC(=O)c2cc(NC(=O)c3ccc(/C=C/c4nc5ccccc5s4)cc3)cn2C)cc1C(=O)NCCC(=N)N | – | – | – | 4.09 (≈ 2.43 µg/mL) | 1.6 | –
